Data as given in patent US20250250312A1, “BIFUNCTIONAL PEPTIDE WITH MU[…] VIRUS BINDING PROPERTIES” (priority 2022, published 2025).

Columns and labels:
[1] = molecular target: receptor binding domain (RBD) of SARS-CoV-2 (2019-nCoV) (Severe acute respiratory syndrome coronavirus 2, UniProt P0DTC2); test: biochemical; conditions: Table 4, cysteines in reduced state, MST
[2] = molecular target: receptor binding domain (RBD) of SARS-CoV-2 wildtype (2019-nCoV) (SARS-CoV-2), P0DTC2

| Molecule | Kd [1] | Kd [2] |
| --- | --- | --- |
| CC(C)C[C@H](NC(=O)[C@H](Cc1ccccc1)NC(=O)[C@@H](NC(=O)[C@H](CCCCN)NC(=O)[C@H](C)NC(=O)[C@H](CCC(N)=O)NC(=O)[C@H](CCC(=O)O)NC(=O)[C@@H](N)CCC(=O)O)[C@@H](C)O)C(=O)N[C@@H](CC(=O)O)C(=O)N[C@@H](CCCCN)C(=O)N[C@@H](Cc1ccccc1)C(=O)N[C@@H](CC(N)=O)C(=O)N[C@@H](Cc1c[nH]cn1)C(=O)N[C@@H](CCC(=O)O)C(=O)N[C@@H](C)C(=O)N[C@@H](CCC(=O)O)C(=O)N[C@@H](CC(=O)O)C(=O)N[C@@H](CS)C(=O)N[C@@H](Cc1ccccc1)C(=O)N[C@@H](Cc1ccc(O)cc1)C(=O)N[C@@H](CCC(N)=O)C(=O)N[C@@H](CS)C(=O)N[C@@H](CO)C(=O)O [p4C18, 22] | 218 nM | – |
| EEQAKTFKDKFDHEAEDLFYQSSGLGKGDFR (modifications not checked) [p6(K)8(D)12] | – | 5000 nM |
